Experimental data published in patent publication US12516039B2, “N-linked isoquinoline amides as LRRK2 inhibitors, pharmaceutical compositions, and uses thereof” (Merck Sharp & Dohme LLC, priority 2020, dated 2026).

Target: T1, GST-tagged truncated human mutant G2019S LRRK2 (Homo sapiens, UniProt Q5S007, G2019S)
T1 construct: GST-tagged truncated human mutant G2019S LRRK2; purchased Life Technologies Corporation (Carlsbad, CA)
Assay: LRRK2 G2019S Km ATP LanthaScreen assay
Assay type: biochemical
Details: 134 μM ATP (Km ATP), LRRKtide substrate, mean of several tests, read-out: LRRK2 pIC50 (converted)
Description: Unless otherwise noted, all reactions are magnetically stirred. Unless otherwise noted, when diethyl ether is used in the experiments described below, it is Fisher ACS certified material and is stabilized with BHT. Unless otherwise noted, “concentrated” and/or “solvent removed under reduced pressure” means evaporating the solvent from a solution or mixture using a rotary evaporator or vacuum pump. Unless otherwise noted, flash chromatography is carried out on a Teledyne Isco (Lincoln, NE), Analogix (Burlington, WI), or Biotage (Stockholm, SWE) automated chromatography system using a commercially available cartridge as the column. Columns may be purchased from Teledyne Isco, Analogix, Biotage, Varian (Palo Alto, CA), or Supelco (Bellefonte, PA) and are usually filled with silica gel as the stationary phase. Reverse phase prep-HPLC conditions, where used, can be found at the end of each experimental section. Aqueous solutions were concentrated on a Genevac (Ipswich, ENG) or by freeze-drying/lyophilization. Unless otherwise noted, all LRRK2 pIC50 data presented in tables refers to the LRRK2 G2019S Km ATP LanthaScreen™ assay (Life Technologies Corp., Carlsbad, CA) that is described in the Biological Assay section.
Biological Assay: LRRK2 Km ATP LanthaScreen™ Assay
The LRRK2 kinase activity reported herein as IC50 values was determined with LanthaScreen™ technology from Life Technologies Corporation (Carlsbad, CA) using GST-tagged truncated human mutant G2019S LRRK2 in the presence of the fluorescein-labeled peptide substrate LRRKtide, also from Life Technologies. The data presented for the Km ATP LanthaScreen™ Assay represents mean IC50 values based on several test results and may have reasonable deviations depending on the specific conditions and reagents used. Assays were performed in the presence of 134 μM ATP (Km ATP). Upon completion, the assay was stopped and phosphorylated substrate detected with a terbium (Tb)-labeled anti-pERM antibody (cat. no. PV4898). The compound dose response was prepared by diluting a 10 mM stock of compound to a maximum concentration of 9.99 μM in 100% dimethylsulfoxide followed by custom fold serial dilution in dimethylsulfoxide nine times. Twenty nanoliters of each dilution was spotted via a Labcyte Echo onto a 384-well black-sided plate (Corning 3575) followed by 15 μl of a 1.25 nM enzyme solution in 1× assay buffer (50 mM Tris pH 8.5, 10 mM MgCl2, 0.01% Brij-35, 1 mM EGTA, 2 mM dithiothreitol, 0.05 mM sodium orthovanadate). Following a 15-minute incubation at room temperature, the kinase reaction was started with the addition of 5 μl of 400 nM fluorescein-labeled LRRKtide peptide substrate and 134 μM ATP solution in 1× assay buffer. The reaction was allowed to progress at ambient temperature for 90 minutes. The reaction was then stopped by the addition of 20 μl of TR-FRET Dilution Buffer (Life Technologies, Carlsbad, CA) containing 2 nM Tb-labeled anti-phospho LRRKtide antibody and 10 mM EDTA (Life Technologies, Carlsbad, CA). After an incubation of 1 hour at room temperature, the plate was read on an EnVision multimode plate reader (Perkin Elmer, Waltham, MA) with an excitation wavelength of 337 nm (Laser) and a reading emission at both 520 and 495 nm. Compound IC50s were interpolated from nonlinear regression best fits of the log of the final compound concentration, plotted as a function of the 520/495-nm emission ratio using Activity base. Abase uses a 4 parameter (4P) logistic fit based on the Levenberg-Marquardt algorithm.

T1 sequence (Q5S007 970-2527 G2019S limits assumed): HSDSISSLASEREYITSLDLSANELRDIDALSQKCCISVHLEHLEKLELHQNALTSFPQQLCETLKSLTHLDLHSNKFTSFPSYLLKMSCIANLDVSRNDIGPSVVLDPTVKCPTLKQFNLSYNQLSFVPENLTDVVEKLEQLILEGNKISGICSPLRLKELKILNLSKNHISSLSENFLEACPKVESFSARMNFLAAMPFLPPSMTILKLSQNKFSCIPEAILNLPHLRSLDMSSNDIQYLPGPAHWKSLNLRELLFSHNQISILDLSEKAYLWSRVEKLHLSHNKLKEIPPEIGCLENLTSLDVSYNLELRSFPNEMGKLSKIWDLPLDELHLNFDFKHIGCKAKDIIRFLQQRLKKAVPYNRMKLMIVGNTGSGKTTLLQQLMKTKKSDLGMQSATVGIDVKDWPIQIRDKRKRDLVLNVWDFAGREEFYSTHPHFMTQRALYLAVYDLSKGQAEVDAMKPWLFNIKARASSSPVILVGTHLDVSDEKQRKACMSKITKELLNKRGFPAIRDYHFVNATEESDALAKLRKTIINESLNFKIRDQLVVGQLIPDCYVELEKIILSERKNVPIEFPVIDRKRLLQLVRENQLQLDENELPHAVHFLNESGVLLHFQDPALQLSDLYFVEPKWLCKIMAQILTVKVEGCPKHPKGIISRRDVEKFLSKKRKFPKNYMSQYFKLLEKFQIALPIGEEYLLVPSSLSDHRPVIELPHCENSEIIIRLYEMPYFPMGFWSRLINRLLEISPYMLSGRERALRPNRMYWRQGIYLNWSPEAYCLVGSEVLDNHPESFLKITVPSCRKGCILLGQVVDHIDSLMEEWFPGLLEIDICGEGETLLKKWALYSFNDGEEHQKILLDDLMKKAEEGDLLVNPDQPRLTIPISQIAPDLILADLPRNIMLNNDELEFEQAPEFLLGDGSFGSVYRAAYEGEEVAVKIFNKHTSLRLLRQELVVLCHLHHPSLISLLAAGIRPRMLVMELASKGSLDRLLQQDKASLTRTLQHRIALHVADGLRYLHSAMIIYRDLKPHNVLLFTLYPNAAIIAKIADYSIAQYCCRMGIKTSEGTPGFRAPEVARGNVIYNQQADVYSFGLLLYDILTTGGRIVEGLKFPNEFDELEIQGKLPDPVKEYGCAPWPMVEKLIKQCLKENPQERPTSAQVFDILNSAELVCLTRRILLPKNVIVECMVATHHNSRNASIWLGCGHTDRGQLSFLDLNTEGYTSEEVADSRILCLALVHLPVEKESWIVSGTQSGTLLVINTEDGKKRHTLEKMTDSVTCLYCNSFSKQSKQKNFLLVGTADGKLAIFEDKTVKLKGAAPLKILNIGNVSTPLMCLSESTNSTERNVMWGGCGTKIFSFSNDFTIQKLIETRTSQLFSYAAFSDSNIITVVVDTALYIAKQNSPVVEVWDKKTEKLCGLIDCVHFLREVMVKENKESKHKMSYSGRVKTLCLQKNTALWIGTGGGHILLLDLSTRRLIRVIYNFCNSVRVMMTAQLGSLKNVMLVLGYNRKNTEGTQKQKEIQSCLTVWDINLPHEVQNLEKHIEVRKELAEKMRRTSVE

Compound | IC50 [nM]
CC1(N2CCN(c3cc4cc(NC(=O)C5CC56CCCOC6)ncc4cc3Cl)CC2)COCC1O (single isomer, unassigned) [Ex-1.11, (1R,3S, or 1R,3R, or 1S,3S, or 1S,3R)-N-(7-chloro-6-(4-((3R,4R or 3S,4S)-4-hydroxy-3-methyltetrahydrofuran-3-yl)piperazin-1-yl)isoquinolin-3-yl)-5-oxaspiro[2.5]octane-1-carboxamide] | 1.7
CC1(N2CCN(c3cc4cc(NC(=O)C5CC56CCCOC6)ncc4cc3Cl)CC2)COCC1O (single isomer, unassigned) [Ex-1.12, (1R,3S, or 1R,3R, or 1S,3S, or 1S,3R)-N-(7-chloro-6-(4-((3R,4R or 3S,4S)-4-hydroxy-3-methyltetrahydrofuran-3-yl)piperazin-1-yl)isoquinolin-3-yl)-5-oxaspiro[2.5]octane-1-carboxamide] | 3.72
CC1(N2CCN(c3cc4cc(NC(=O)C5CC56CCCOC6)ncc4cc3Cl)CC2)COCC1O (single isomer, unassigned) [Ex-1.13, (1R,3S, or 1R,3R, or 1S,3S, or 1S,3R)-N-(7-chloro-6-(4-((3R,4R or 3S,4S)-4-hydroxy-3-methyltetrahydrofuran-3-yl)piperazin-1-yl)isoquinolin-3-yl)-5-oxaspiro[2.5]octane-1-carboxamide] | 275
CC1(N2CCN(c3cc4cc(NC(=O)C5CC56CCCOC6)ncc4cc3Cl)CC2)COCC1O (single isomer, unassigned) [Ex-1.14, (1R,3S, or 1R,3R, or 1S,3S, or 1S,3R)-N-(7-chloro-6-(4-((3R,4R or 3S,4S)-4-hydroxy-3-methyltetrahydrofuran-3-yl)piperazin-1-yl)isoquinolin-3-yl)-5-oxaspiro[2.5]octane-1-carboxamide] | 0.603
CC1(N2CCN(c3cc4cc(NC(=O)C5CC56CCCOC6)ncc4cc3Cl)CC2)COCC1O (single isomer, unassigned) [Ex-1.15, (1R,3S, or 1R,3R, or 1S,3S, or 1S,3R)-N-(7-chloro-6-(4-((3R,4R or 3S,4S)-4-hydroxy-3-methyltetrahydrofuran-3-yl)piperazin-1-yl)isoquinolin-3-yl)-5-oxaspiro[2.5]octane-1-carboxamide] | 46.8
CC1(N2CCN(c3cc4cc(NC(=O)C5CC56CCCOC6)ncc4cc3Cl)CC2)COCC1O (single isomer, unassigned) [Ex-1.16, (1R,3S, or 1R,3R, or 1S,3S, or 1S,3R)-N-(7-chloro-6-(4-((3R,4R or 3S,4S)-4-hydroxy-3-methyltetrahydrofuran-3-yl)piperazin-1-yl)isoquinolin-3-yl)-5-oxaspiro[2.5]octane-1-carboxamide] | 112
CC1(N2CCN(c3cc4cc(NC(=O)C5CC56CCCOC6)ncc4cc3Cl)CC2)COCC1O (single isomer, unassigned) [Ex-1.17, (1R,3S, or 1R,3R, or 1S,3S, or 1S,3R)-N-(7-chloro-6-(4-((3R,4R or 3S,4S)-4-hydroxy-3-methyltetrahydrofuran-3-yl)piperazin-1-yl)isoquinolin-3-yl)-5-oxaspiro[2.5]octane-1-carboxamide] | 776
CC1(N2CCN(c3cc4cc(NC(=O)C5CC56CCCOC6)ncc4cc3Cl)CC2)COCC1O (single isomer, unassigned) [Ex-1.18, (1R,3S, or 1R,3R, or 1S,3S, or 1S,3R)-N-(7-chloro-6-(4-((3R,4R or 3S,4S)-4-hydroxy-3-methyltetrahydrofuran-3-yl)piperazin-1-yl)isoquinolin-3-yl)-5-oxaspiro[2.5]octane-1-carboxamide] | 0.724
CC1(N2CCN(c3cc4cc(NC(=O)C5CC56CCC(F)(F)CC6)ncc4cc3Cl)CC2)COCC1O (single isomer, unassigned) [Ex-1.19, (1R or 1S)-N-(7-chloro-6-(4-((3R,4R or 3S,4S)-4-hydroxy-3-methyltetrahydrofuran-3-yl)piperazin-1-yl)isoquinolin-3-yl)-6,6-difluorospiro[2.5]octane-1-carboxamide] | 1.1
